Literature values, collected in US20250268820A1 (Zambon S.p.A., priority 2020, published 2025).
Blank lines part the entries; values can stand above or below the compound they belong to.

Key:
[1] = in vivo

SMILES: OC(Cn1cncn1)(Cn1cncn1)c1ccc(F)cc1F [Fluconazole]
activity against invasive aspergillosis (invasive aspergillosis): not active

ELF exposure as fraction of the plasma concentration (healthy volunteers): approximately ⅓ | concentration in the alveolar cells with respect to the plasma concentration (healthy volunteers): more than double | concentrations in bronchoalveolar lavage fluid and lung tissue in the airways versus plasma (other cases): 10 times lower
SMILES: CCC(C)n1ncn(-c2ccc(N3CCN(c4ccc(OCC5COC(Cn6cncn6)(c6ccc(Cl)cc6Cl)O5)cc4)CC3)cc2)c1=O (stereo not drawn) [itraconazole]

pharmacokinetic profile (Cmax and AUC versus dose) [1]: non-linear
SMILES: C[C@@H](c1ncncc1F)[C@](O)(Cn1cncn1)c1ccc(F)cc1F [voriconazole]
concentration in homogenates of lung tissue versus plasma (post-mortem studies, treated patients): comparable to those measured in the plasma
